One test addresses Mac-1/ICAM-1 (Homo sapiens, UniProt P05107+P11215). Kind of test: Mac-1/ICAM-1 ELISA. Conditions: Mac-1 receptor coated plates, 5dICAM-Fc binding. The method, then: (§1) sLFA-1/ICAM-1 ELISA and Mac-1/ICAM-1 ELISA
(§2) Plates were coated with either 50 μl/well of 2.0 ug/ml solution of sLFA-1 or Mac-1 receptor in divalent cation buffer (1 mM MnCI2, 0.14M NaCl, 20 mM HEPES pH 7.2) at 4° C. overnight. Two hundred fifty μl of blocking buffer (1% BSA in divalent cation buffer) was added to each well 1 hour at 37° C. Plates were washed 3 times with wash buffer (TBS/0.05% Tween-20/1 mM MnCl2). The compound to be tested was solubilized in DMSO. A series of 1:3 dilutions were performed to achieve a concentration range of 0.45 nM-3 uM. Fifty μl of binding buffer (0.5% BSA in divalent cation buffer)/1% DMSO and 50 μl of the solutions to be tested were added to the appropriate wells and incubated for 1 hour. Fifty μl of 5dICAM-Fc (27 ng/ml) was added to the appropriate wells and 50 μl binding buffer was added to non-specific binding wells and incubated for 2 hours and washed. One hundred μl of 1:4000 HRP-goat anti-huIgG was added to each well and incubated for 1 hour and washed. One hundred μl of 1:1 TMB solution was added to each well and developed for 20 min at room temperature. Color development was stopped by adding 100 μl H3PO4 to each well. Absorbance was measured at 450 nm.
(In general: An ELISA detects its analyte on a solid surface through an enzyme-linked reagent.)

The target of another test is sLFA-1/ICAM-1 (Homo sapiens, UniProt P05107+P20701, DEL701-769). In words: sLFA-1/ICAM-1 ELISA. The conditions noted are these: sLFA-1 coated plates, 5dICAM-Fc binding, read-out: LFA/ICAM (IC50). The method, then:
as §1, §2

Each structure is given as a SMILES string.

Mac-1/ICAM-1, sequence (P05107 23-769, other chains not shown): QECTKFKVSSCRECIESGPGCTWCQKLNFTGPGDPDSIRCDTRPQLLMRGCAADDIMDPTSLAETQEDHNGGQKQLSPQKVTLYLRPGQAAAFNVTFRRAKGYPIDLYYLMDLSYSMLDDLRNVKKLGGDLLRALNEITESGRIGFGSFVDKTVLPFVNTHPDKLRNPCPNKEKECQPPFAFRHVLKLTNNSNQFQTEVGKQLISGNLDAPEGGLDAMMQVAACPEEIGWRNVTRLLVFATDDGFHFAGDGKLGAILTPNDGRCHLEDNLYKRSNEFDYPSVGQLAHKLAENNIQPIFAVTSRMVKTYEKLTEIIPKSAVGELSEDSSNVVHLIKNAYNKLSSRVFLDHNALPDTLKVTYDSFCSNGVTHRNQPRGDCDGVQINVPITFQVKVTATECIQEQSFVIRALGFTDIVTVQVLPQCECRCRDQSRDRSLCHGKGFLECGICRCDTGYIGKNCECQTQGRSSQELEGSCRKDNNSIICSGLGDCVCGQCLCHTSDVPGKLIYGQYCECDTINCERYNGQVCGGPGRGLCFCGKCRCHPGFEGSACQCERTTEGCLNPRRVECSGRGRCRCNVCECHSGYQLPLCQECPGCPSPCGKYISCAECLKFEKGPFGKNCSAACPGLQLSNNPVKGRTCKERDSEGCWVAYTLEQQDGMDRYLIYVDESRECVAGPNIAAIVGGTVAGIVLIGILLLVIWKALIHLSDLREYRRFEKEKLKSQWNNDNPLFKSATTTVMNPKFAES
sLFA-1/ICAM-1, sequence (P20701 26-1090 limits assumed, stated change not applied): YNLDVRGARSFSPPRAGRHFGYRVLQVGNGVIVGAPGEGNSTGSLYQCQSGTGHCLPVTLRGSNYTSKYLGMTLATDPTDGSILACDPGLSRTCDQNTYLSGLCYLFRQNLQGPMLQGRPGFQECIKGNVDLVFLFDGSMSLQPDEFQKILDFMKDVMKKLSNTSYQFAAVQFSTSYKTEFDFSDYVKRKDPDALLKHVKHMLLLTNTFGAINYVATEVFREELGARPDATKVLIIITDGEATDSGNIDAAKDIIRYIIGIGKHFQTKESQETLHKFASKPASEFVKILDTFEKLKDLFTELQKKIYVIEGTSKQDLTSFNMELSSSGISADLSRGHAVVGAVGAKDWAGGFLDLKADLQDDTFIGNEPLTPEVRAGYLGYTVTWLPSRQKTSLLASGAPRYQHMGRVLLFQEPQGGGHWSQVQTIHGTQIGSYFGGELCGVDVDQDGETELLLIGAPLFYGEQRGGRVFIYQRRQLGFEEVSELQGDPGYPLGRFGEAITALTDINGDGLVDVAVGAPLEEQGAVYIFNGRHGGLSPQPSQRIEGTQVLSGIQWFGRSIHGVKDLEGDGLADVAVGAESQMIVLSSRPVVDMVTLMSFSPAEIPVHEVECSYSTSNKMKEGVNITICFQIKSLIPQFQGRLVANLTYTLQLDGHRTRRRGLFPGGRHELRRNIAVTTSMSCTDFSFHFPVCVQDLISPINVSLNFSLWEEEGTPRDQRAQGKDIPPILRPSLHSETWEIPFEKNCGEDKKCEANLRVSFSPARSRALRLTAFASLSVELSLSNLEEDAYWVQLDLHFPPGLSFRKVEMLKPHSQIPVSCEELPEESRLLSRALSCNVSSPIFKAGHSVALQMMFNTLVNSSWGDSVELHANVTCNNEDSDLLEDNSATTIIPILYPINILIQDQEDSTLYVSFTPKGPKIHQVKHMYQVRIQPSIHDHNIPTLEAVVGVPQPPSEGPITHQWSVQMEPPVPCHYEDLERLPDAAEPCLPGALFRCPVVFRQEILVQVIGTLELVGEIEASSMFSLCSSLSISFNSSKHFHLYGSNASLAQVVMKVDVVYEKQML
sLFA-1/ICAM-1, sequence (P05107 23-700 limits assumed, stated change not applied): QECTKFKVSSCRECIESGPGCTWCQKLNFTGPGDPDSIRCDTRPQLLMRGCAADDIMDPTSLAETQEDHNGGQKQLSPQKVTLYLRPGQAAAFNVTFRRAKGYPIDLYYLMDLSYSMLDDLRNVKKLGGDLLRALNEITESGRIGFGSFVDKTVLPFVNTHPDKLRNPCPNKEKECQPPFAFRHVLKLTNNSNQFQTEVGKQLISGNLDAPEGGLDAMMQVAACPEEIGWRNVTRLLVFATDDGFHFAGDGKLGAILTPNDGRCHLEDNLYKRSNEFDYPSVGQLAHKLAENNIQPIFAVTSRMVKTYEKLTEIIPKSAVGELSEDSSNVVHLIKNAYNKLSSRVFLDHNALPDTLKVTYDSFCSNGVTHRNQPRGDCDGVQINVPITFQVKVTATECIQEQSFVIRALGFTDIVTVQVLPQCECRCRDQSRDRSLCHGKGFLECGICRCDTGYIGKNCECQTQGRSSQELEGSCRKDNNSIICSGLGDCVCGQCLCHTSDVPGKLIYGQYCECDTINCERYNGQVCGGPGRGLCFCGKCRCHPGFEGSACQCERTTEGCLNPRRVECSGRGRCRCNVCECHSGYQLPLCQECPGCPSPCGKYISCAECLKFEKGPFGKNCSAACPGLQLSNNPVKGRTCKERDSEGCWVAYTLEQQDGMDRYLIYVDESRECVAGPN

As to `O=C(Cc1cccc(O)c1)Nc1nc(C(F)(F)F)c(C(=O)N[C@@H](CNC(=O)c2cccs2)C(=O)O)s1` [Example 9, (S)-2-([2-[2-(3-Hydroxy-phenyl)-acetylamino]-4-trifluoromethyl-thiazole-5-carbonyl]-amino)-3-[(thiophene-2-carbonyl)-amino]-propionic acid], the values for the IC50 on Mac-1/ICAM-1 and at sLFA-1/ICAM-1 were 82 nM and 30 nM, respectively.
On the same counts, the results for `Cc1nc(NC(=O)CCc2cccc(O)c2)sc1C(=O)N[C@@H](CNC(=O)c1cc(O)cc(O)c1)C(=O)O` [Example 10, (S)-3-(3,5-Dihydroxy-benzoylamino)-2-({2-[3-(3-hydroxy-phenyl)-propionylamino]-4-methyl-thiazole-5-carbonyl}-amino)-propionic acid] are 20 nM and 44 nM.
As to `Cc1nc(NCCc2cccc(O)c2)sc1C(=O)N[C@@H](CNC(=O)c1cc(O)cc(O)c1)C(=O)O` [Example 12, (S)-3-(3,5-Dihydroxy-benzoylamino)-2-({2-[2-(3-hydroxy-phenyl)-ethylamino]-4-methyl-thiazole-5-carbonyl}-amino)-propionic acid], the IC50 on Mac-1/ICAM-1 stood at 27 nM; at sLFA-1/ICAM-1, 13 nM.
For `Cc1nc(OCCCc2cccc(O)c2)sc1C(=O)N[C@@H](CNC(=O)c1cccs1)C(=O)O` [Example 13, (S)-2-({2-[3-(3-Hydroxy-phenyl)-propoxy]-4-methyl-thiazole-5-carbonyl}-amino)-3-[(thiophene-2-carbonyl)-amino]-propionic acid] the same measures were > 3000 nM and 52 nM.
On the same counts, the results for `Cc1nc(NC(=O)Cc2cccc3[nH]ncc23)sc1C(=O)N[C@@H](CNC(=O)c1cccs1)C(=O)O` [Example 14, (S)-2-{[2-(2-1H-Indazol-4-yl-acetylamino)-4-methyl-thiazole-5-carbonyl]-amino}-3-[(thiophene-2-carbonyl)-amino]-propionic acid] are 89 nM and 8 nM.
On the same counts, the results for `Cc1nc(NC(=O)Cc2cccc3[nH]ncc23)sc1C(=O)N[C@@H](CNC(=O)c1cc(O)cc(O)c1)C(=O)O` [Example 15, (S)-3-(3,5-Dihydroxy-benzoylamino)-2-{[2-(2-1H-indazol-4-yl-acetylamino)-4-methyl-thiazole-5-carbonyl}-amino]-propionic acid] are 12 nM and 3 nM.
As to `Cc1nc(NCCCc2cccc3[nH]ncc23)sc1C(=O)N[C@@H](CNC(=O)c1cccs1)C(=O)O` [Example 17, (S)-2-([2-[3-(1H-Indazol-4-yl)-propylamino]-4-methyl-thiazole-5-carbonyl]-amino)-3-[(thiophene-2-carbonyl)-amino]-propionic acid], the figures for the IC50 on Mac-1/ICAM-1 and at sLFA-1/ICAM-1 were 294 nM and 223 nM, respectively.
On the same counts, the results for `Cc1cc(C(=O)NCc2cccc(O)c2)sc1C(=O)N[C@@H](CNC(=O)c1cccs1)C(=O)O` [Example 32, (S)-2-{[5-(3-hydroxy-benzylcarbamoyl)-3-methyl-thiophen-2-carbonyl]-amino}-3-[(thiophene-2-carbonyl)-amino]-propionic acid] are 94 nM and 19 nM.
With `CC(C)(C)c1cc(C(=O)NCc2cccc(O)c2)sc1C(=O)N[C@@H](CNC(=O)c1cccs1)C(=O)O` [Example 33], the IC50 at Mac-1/ICAM-1 came to 300 nM; on sLFA-1/ICAM-1, 149 nM.
Consider `Cc1cc(C(=O)NCc2cccc3[nH]ccc23)sc1C(=O)N[C@@H](CNC(=O)c1cccs1)C(=O)O` [Example 34, (S)-2-({5-[(1H-indol-4-ylmethyl)carbamoyl]-3-methyl-thiophen-2-carbonyl}-amino)-3-[(thiophene-2-carbonyl)-amino]-propionic acid], for which the values for the IC50 at Mac-1/ICAM-1 and at sLFA-1/ICAM-1 were > 3000 nM and 516 nM, respectively.
With `Cc1cc(C(=O)NCc2cccc3c2CC(=O)N3)sc1C(=O)N[C@@H](CNC(=O)c1cccs1)C(=O)O` [Example 35, (S)-2-({3-methyl-5-[(2-oxo-2,3-dihydro-11′-indol-4-ylmethyl)carbamoyl]-thiophen-2-carbonyl}-amino)-3-[(thiophene-2-carbonyl)-amino]-propionic acid], the IC50 on Mac-1/ICAM-1 was > 3000 nM; on sLFA-1/ICAM-1, 671 nM.
Regarding `Cc1cc(C(=O)NCc2cccc3[nH]ncc23)sc1C(=O)N[C@@H](CNC(=O)c1cccs1)C(=O)O` [Example 36, (S)-2-({5-[(1H-indazol-4-ylmethyl)-carbamoyl]-3-methyl-thiophen-2-carbonyl}-amino)-3-[(thiophene-2-carbonyl)-amino]-propionic acid], the IC50 at Mac-1/ICAM-1 is 48 nM; on sLFA-1/ICAM-1 it was 24 nM.
Regarding `Cc1cc(C(=O)NCc2cccc(O)c2)sc1C(=O)N[C@@H](CNC(=O)c1cc(O)cc(O)c1)C(=O)O` [Example 38, (S)-3-(3,5-dihydroxy-benzoylamino)-2-{[5-(3-hydroxy-benzylcarbamoyl)-3-methyl-thiophen-2-carbonyl]-amino}-propionic acid], the IC50 on Mac-1/ICAM-1 amounted to 7 nM; on sLFA-1/ICAM-1 it was 2 nM.
For `Cc1cc(C(=O)NCc2cccc(O)c2)sc1C(=O)N[C@@H](CNC(=O)c1cc(=O)[nH]c(=O)[nH]1)C(=O)O` [Example 39] the same measures were > 3000 nM and 55 nM.
On the same counts, the results for `Cc1cc(C(=O)NCc2cccc(O)c2)sc1C(=O)N[C@@H](CNC(=O)c1cccc(O)c1)C(=O)O` [Example 40] are 23 nM and 2 nM.
As to `Cc1cc(C(=O)NCc2cccc(O)c2)sc1C(=O)N[C@@H](CNC(=O)c1cnccn1)C(=O)O` [Example 41], the values for the IC50 at Mac-1/ICAM-1 and on sLFA-1/ICAM-1 were > 3000 nM and 21 nM, respectively.
On the same counts, the results for `Cc1cc(C(=O)NCc2cccc(O)c2)sc1C(=O)N[C@@H](CNC(=O)c1ccc2[nH]cnc2c1)C(=O)O` [Example 42] are > 3000 nM and 35 nM.
For `Cc1cc(C(=O)NCCc2cccc(O)c2)sc1C(=O)N[C@@H](CNC(=O)c1cc(O)cc(O)c1)C(=O)O` [Example 49, (S)-3-(3,5-dihydroxy-benzoylamino)-2-([5-[2-(3-hydroxy-phenyl)-ethyl-carbamoyl]-3-methyl-thiophen-2-carbonyl]-amino)-propionic acid] the same measures were 207 nM and 18 nM.
On the same counts, the results for `O=C(NC[C@H](NC(=O)c1sc(C(=O)NCc2cccc3[nH]ccc23)cc1C(F)(F)F)C(=O)O)c1cccs1` [Example 50, (S)-2-({5-[(1H-Indol-4-ylmethyl)-carbamoyl]-3-trifluoromethyl-thiophene-2-carbonyl}-amino)-3-[(thiophene-2-carbonyl)-amino]-propionic acid] are > 3000 nM and 344 nM.
As to `O=C1Cc2c(CNC(=O)c3cc(C(F)(F)F)c(C(=O)N[C@@H](CNC(=O)c4cccs4)C(=O)O)s3)cccc2N1` [Example 51, (S)-2-({5-[(2-oxo-2,3-dihydro-1H-indol-4-ylmethyl)-carbamoyl]-3-trifluoromethyl-thiophene-2-carbonyl}-amino)-3-[(thiophene-2-carbonyl)-amino]-propionic acid], the results for the IC50 at Mac-1/ICAM-1 and on sLFA-1/ICAM-1 were > 3000 nM and 164 nM, respectively.
On the same counts, the results for `O=C(NC[C@H](NC(=O)c1sc(C(=O)NCc2cccc(O)c2)cc1C(F)(F)F)C(=O)O)c1cccs1` [Example 52, (S)-2-{[5-(3-Hydroxy-benzylcarbamoyl)-3-trifluoromethyl-thiophene-2-carbonyl]-amino}-3-[(thiophene-2-carbonyl)-amino]-propionic acid] are 115 nM and 31 nM.

Values taken from patent publication US8404859B2, “Thiazole and thiophene compounds” (Hoffmann-La Roche Inc., priority 2011, dated 2013).
